Laboratory results published in patent US20240207308A1, “METHOD FOR CULTURING DENDRITIC CELLS” (NANOFAENTECH CO., LTD., priority 2021, published 2024).

Experiments:
Type in all cases: cell-based, mouse
spleen dendritic cells [1] = experiment: Flow cytometry of CD86, MHC-II, CD80, CD40 on cultured spleen dendritic cells (self-activation); details: for increase in the expression of CD86: each at 800 μg/mL, 24 hours; for increase in the expression of CD86 / increase in CD86 expression by self-activation: 2×10^5/mL cells; for increase in CD86 expression by self-activation: different concentrations up to 800 μg/mL
Description: Mouse spleen dendritic cells were obtained by adding EDTA-BSS (Balanced Salt Solution) buffer and collagenase solution (DMEM containing 100 units of collagenase type IV, medium containing low glucose) to spleens of female C57BL/6 mice and cutting it with surgical scissors, mixing the same with 6 mL of collagenase treatment solution, and incubating the mixture for 30 minutes. The separated whole spleen tissue was filtered using a 70 μm cell strainer (Falcon), followed by centrifugation at 1800 rpm for 5 minutes thus to separate the cells. Red blood cells were removed by adding red blood cell lysis buffer (Sigma-Aldrich) to the cells and washed twice with RPMI-1640 medium containing 10% fetal bovine serum (FBS). Dendritic cells were reacted with CD11c^+ antibody-bound microbeads and isolated using CD11c Microbeads Ultrapure (MACS, Milteni Biotec, USA).
In FIG. 2, in order to determine whether self-activation occurs when primary dendritic cells isolated from the spleen are cultured, dendritic cells were dispensed in a 24-well plate at 2×10^5/mL, and after culturing for 6 hours in RPMI-1640 medium at 37° C. under 5% CO2 condition, the expression levels of MHC-II, CD86, CD80 and CD40 were analyzed on the surface of dendritic cells using a flow cytometer (MACSQuant VYB flow cytometer, Miltenyi Biotec). Results measured using a flow cytometer were analyzed using FlowJo v10 (Tree Star, Ashland). The expression levels of CD86, CD80 and CD40 were shown as the percentage of cells stained with CD11c, and the expression level of MHC-II was shown as mean fluorescence intensity (MFI), which is the mean fluorescence intensity of fluorescence.
In FIG. 7, when culturing spleen dendritic cells, each of the prepared peptides was added at a concentration of 200 μg/mL and the expression level of CD86 was measured 6 hours after culture. When each peptide was used alone for treatment, the expression of CD86 was not inhibited in spleen dendritic cells. […] Compared to when the cells were treated with these three kinds of peptides, the expression was not inhibited even when the two kinds of peptides were used together for treatment. * indicates statistical significance as P<0.05 or less compared to the P1, P1-2, and P2-1 conditions.
In FIG. 9, peptides containing P1 and P2 and amino acids of these peptides as well as P3 peptide in a combination of three types were added to the spleen dendritic cell culture medium, and after culturing for 6 hours, the expression level of CD86 was measured by flow cytometry.
In FIG. 24, different concentrations of LP1, LP2 and LP3 were added to reach a concentration of 800 μg/mL, and spleen dendritic cells (2×10^5/mL) were cultured for 6 hours or 24 hours, and the CD86 expression level was measured by flow cytometry (MACSQuant VYB flow cytometer, Miltenyi Biotec). The measured results were analyzed using FlowJo v10 (Tree Star, Ashland).
In FIG. 25, when spleen primary dendritic cells were dispensed at 2×10^5/mL and cultured for 24 hours while scrambled peptides of S-LP1, S-LP2 and S-LP3 were each added at a concentration of 800 μg/mL, the increase in the expression of CD86 was not inhibited. Further, the expression of CD86 was not reduced even when the scrambled peptides S-P1, S-P2 and S-P3 were simultaneously treated at a concentration of 600 μg/mL, respectively.

spleen dendritic cells [2] = experiment: Fluorescence staining of CD86 in spleen dendritic cells, confocal microscope; details: without LPS, linker peptides 400 μg/mL, 24 hours
Description: In FIG. 11, culturing spleen dendritic cells (2×10^5/mL) and the prepared peptides were added at a concentration of 200 μg/mL, respectively, and after 6 hours, the expression level of CD86 using a PE-conjugated anti-CD86 antibody (eBioscience) was measured through a confocal microscope after fluorescence staining. After culturing spleen primary dendritic cells for a certain period of time, intracellular CD86, F-actin and nuclear staining was implemented. Expression of actin was stained with FITC-conjugated phalloidin (eBioscience), and nuclear staining was conducted with Hoechst 33342 (Sigma-Aldrich). For this purpose, cells cultured in a 48-well plate were placed in a 4% paraformaldehyde fixing solution, and then fixed at room temperature for 20 minutes.
Then, after washing twice with phosphate buffered saline solution, it was permeabilized with 0.1% Triton X-100 (Sigma-Aldrich) solution at room temperature for 5 minutes and washed twice with phosphate buffered saline solution. In order to remove non-specific staining, after reacting with 0.2% bovine serum albumin (Sigma-Aldrich) solution at room temperature for 20 minutes, it was washed twice with phosphate buffered saline solution. After that, the anti-CD86 antibody and phalloidine were diluted in 0.2% bovine serum albumin solution at a ratio of 1:40 and reacted for 40 minutes, washed 3 times with Tris buffer, placed on a slide glass, followed by counter-staining with Hoechst 33342 solution for nuclear staining of cells. After sealing with a cover glass, the cells were observed using a confocal laser microscope (K1 nanoscope).
In FIG. 26, spleen dendritic cells (2×10^5/mL) were dispensed in a 48-well plate, and linker peptides were each added at a concentration of 400 μg/mL, followed by culturing for 24 hours. Activation of spleen dendritic cells was induced by adding 1 μg/mL of LPS to the culture medium. The cultured cells were placed in a 4% paraformaldehyde fixing solution and fixed at room temperature for 20 minutes. After fluorescence staining using PE-conjugated anti-CD86 antibody (eBioscience), it was measured with a confocal microscope (K1 Nanoscope, Korea). Intracellular actin expression was stained with FITC-conjugated phalloidin (eBioscience), and nuclear staining was conducted with Hoechst 33342 (Sigma-Aldrich). CD86 antibody and phalloidin were diluted 1:40 in 0.2% bovine serum albumin solution and used.

[3] = test system: spleen primary dendritic cells; experiment: ELISA of TNF-α / IL-12p40 secreted by cultured spleen primary dendritic cells; details: cells 2×10^5/mL, 24 hours, without LPS
Description: In FIG. 12, spleen primary dendritic cells were dispensed at 1×10^6/mL and cultured for 24 hours, and then a concentration of TNF-α secreted from these cells in the culture medium was measured. As a result, it was confirmed that the secretion increased in a time-dependent manner. The concentration of TNF-α was measured at 450 nm using an ELISA kit (R&D systems) and a microplate analyzer (Synergy H1, Biotek). However, when dendritic cells were dispensed at 2×10^5/mL, CD86 expression was increased but TNF-α secretion was not increased (results not presented). * indicates statistical significance as P<0.05 or less compared with 3 h.
In FIG. 13, spleen primary dendritic cells were dispensed at 1×10^6/mL and cultured for 24 hours. […] Furthermore, when P4, P5 and P6 peptides were added at a concentration of 200 μg/mL, respectively, the secretion of TNF-α was not inhibited.
Therefore, it could be seen that fibronectin has a disadvantage of inhibiting the activation by stimulants although can maintain the inactivation of spleen dendritic cells. * indicates statistical significance as P<0.05 or less compared to -LPS.
In FIG. 27, an ELISA kit (R&D systems) was used to measure the concentration of TNF-α secreted into the culture medium when spleen primary dendritic cells were dispensed at 2×10^5/mL and cultured for 24 hours. The concentration was determined at 450 nm by a microplate analyzer (Synergy H1, Biotek).

[4] = test system: spleen T cells from Balb/c mice; experiment: Mixed lymphocyte reaction: proliferation of CFSE-stained allogeneic T cells co-cultured with spleen dendritic cells; details: dendritic cells without peptide or fibronectin, activated with the stimulant, compared to control
Description: Since the main role of activated dendritic cells is to induce antigen-specific T-cell activation and proliferation according to the stimulatory properties, it was investigated whether self-activated dendrite cells after culturing and dendritic cells activated with LPS after culturing with addition of peptides can induce T cell proliferation by mixed lymphocyte reaction (MLR) test. The spleen dendritic cells isolated from C57B/L6 mice were self-activated for 24 hours, otherwise, when cultured with addition of peptides or fibronectin, the cells were treated with LPS and activated. Spleen T cells from Balb/c mice were isolated using a CD4^+/CD8^+ T cell isolation kit (Miltenyi Biotec, Bergisch-Gladbach, Germany) and MACS column (Miltenyi Biotec), followed by 10 μM CFSE staining (Molecular Probes; Thermo Fisher Scientific Inc., USA). The activated dendritic cells and CFSE-stained T cells were co-cultured at a ratio of 1:20 for 4 days, and the T cell proliferation level was measured as a percentage of cells with decreased CFSE. […] In FIG. 22, the amount of cytokines secreted after co-culture of spleen dendritic cells and T cells for 4 days was measured by ELISA method. […]

## NRPHSGGGSGGGSDRGGGGSVDL (Scrambled linker peptide S-LP3) [scrambled linker peptide, control, reference compound]
Spleen dendritic cells [1]
  increase in the expression of CD86: not inhibited

## PHSRNGGGSGGGSRGDGGGSLDV (Linker peptide LP3)
Spleen dendritic cells [2]
  CD86-expressing cells: almost not observed
Spleen dendritic cells [1]; 6 hours or 24 hours
  increase in CD86 expression by self-activation: inhibited
Spleen dendritic cells [1]; up to 800 μg/mL, 6 hours or 24 hours
  self-activation inhibitory effect compared among LP1, LP2 and LP3: greatest self-activation inhibitory effect
[3]
  TNF-α secretion: hardly occurred

## polyinosinic:polycytidylic acid [poly (I:C), reference compound]
[4]
  proliferation of co-cultured spleen T cells: slightly increased

## NRPHSGGGSDRGGGGSVDL (Scrambled linker peptide S-LP2) [scrambled linker peptide, control, reference compound]
Spleen dendritic cells [1]
  increase in the expression of CD86: not inhibited

## Pro-His-Ser-Arg-Asn (PHSRN; Fibronectin motif P3) [Peptide P3]
Spleen dendritic cells [1]; treated alone at 600 μg/mL, 6 hours
  expression level of CD86: no inhibitory effect

## PHSRNGGGSRGDGGGSLDV (Linker peptide LP2)
Spleen dendritic cells [2]
  CD86-expressing cells: almost not observed
Spleen dendritic cells [1]; 6 hours or 24 hours
  increase in CD86 expression by self-activation: inhibited
[3]
  TNF-α secretion: hardly occurred

## PHSRNGSRGDGSLDV (Linker peptide LP1)
Spleen dendritic cells [2]
  CD86-expressing cells: almost not observed
Spleen dendritic cells [1]; 6 hours or 24 hours
  increase in CD86 expression by self-activation: inhibited
[3]
  TNF-α secretion: hardly occurred

## NRPHSGSDRGGSVDL (Scrambled linker peptide S-LP1) [scrambled linker peptide, control, reference compound]
Spleen dendritic cells [1]
  increase in the expression of CD86: not inhibited

## laminin
Spleen dendritic cells [1]; 200 μg/mL (laminin 200 μg/mL or higher), cultured 6 hours
  expression level of CD86 or MHC-II (self-activation): self-activation was not inhibited
Spleen dendritic cells [1]; cultured 6 hours or 24 hours, peptides 200 μg/mL each
  expression of MHC-II, CD80 and CD40 in addition to CD86: no effect was observed
